TGI and GI50 data for eleven compounds are collected here from PubChem BioAssay (NCI).

Values joined by “and” are separate entries in the source; they are usually repeats but may differ in a detail not shown here. Identical values can stand only once.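 1) Cells in 96-well plates. 2) Compound, 48 h, 5 concentrations. 3) Linear interpolation between surrounding doses. 4) Unreached endpoint = highest concentration. The concentration for 50% growth inhibition is given as GI50. Definition used: TGI = concentration required for complete inhibition of growth.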

Among the test systems are UACC-62 melanoma; SNB-75 CNS; K-562 leukemia; A549 NSCLC; CAKI-1 renal; MDA-N; NCI-H460 lung; MOLT-4 leukemia; SK-MEL-28 melanoma; EKVX NSCLC.
Experiment in all cases: inhibition of tumour cell growth, NCI panel, 48 h

Turning to `NCCCN1CCN(CCCNc2ccc3nnn4c5ccccc5c(=O)c2c34)CC1`, the TGI in the test on UACC-62 melanoma was 33.7 µM; in the test on SNB-75 CNS, 48.3 µM; in the test with K-562 leukemia, > 100 µM; in the test on A549 NSCLC it was > 100 µM; with CAKI-1 renal, 59.2 µM; with MDA-N, 31 µM. The TGI in the test with NCI-H460 lung is 58.1 µM; in the test on MOLT-4 leukemia, > 100 µM; with SK-MEL-28 melanoma, > 100 µM; in the test with EKVX NSCLC, 41.1 µM.
`COC(=O)CN1c2nc(C#N)c(C#N)nc2N(CC(=O)OC)c2nc(C#N)c(C#N)nc21`: the TGI in the test with UACC-62 melanoma was 42.4 µM; with SNB-75 CNS, 30.4 µM; in the test with K-562 leukemia, > 33.9 µM; in the test on A549 NSCLC it was > 82.8 µM; in the test on CAKI-1 renal, 1.55 µM; in the test with MDA-N it was > 100 µM. The TGI in the test with NCI-H460 lung is > 71 µM; with MOLT-4 leukemia, > 22 µM; in the test on SK-MEL-28 melanoma, > 100 µM; with EKVX NSCLC, > 51.3 µM.
Turning to `Clc1ccc(CSCCc2ccncc2)cc1Cl`, the TGI in the test on UACC-62 melanoma was 29.6 µM; in the test with SNB-75 CNS it was 77.6 µM; in the test with K-562 leukemia, 51 µM; in the test with A549 NSCLC, 96.2 µM; with CAKI-1 renal, > 100 µM; in the test on MDA-N, 46.5 µM. Besides, the TGI in the test on NCI-H460 lung was > 100 µM; with MOLT-4 leukemia, 38.1 µM; in the test on SK-MEL-28 melanoma it was 50.8 µM; with EKVX NSCLC, 57 µM.
For `COc1nc2ncc([C@@H](OC(C)=O)[C@@H](COC(C)=O)OC(C)=O)nc2c(=O)[nH]1`, the TGI in the test with UACC-62 melanoma, in the test with SNB-75 CNS, in the test on K-562 leukemia, with A549 NSCLC, with CAKI-1 renal and in the test on MDA-N was > 100 µM in each case. Also, the TGI in the test on NCI-H460 lung, with MOLT-4 leukemia, in the test with SK-MEL-28 melanoma and in the test on EKVX NSCLC was > 100 µM each time. For the same compound, the GI50 is > 100 µM and 11.3 µM in the test on SNB-75 CNS; > 100 µM and 49.9 µM with MOLT-4 leukemia.
With `CNc1ncnc2c1cnn2COCC(O)CO` (stereo not drawn), the TGI with UACC-62 melanoma, in the test on SNB-75 CNS, with K-562 leukemia, in the test on A549 NSCLC, in the test with CAKI-1 renal and in the test on MDA-N was > 100 µM throughout. The TGI in the test with NCI-H460 lung, in the test on MOLT-4 leukemia, in the test on SK-MEL-28 melanoma and with EKVX NSCLC was > 100 µM each time.
With `O=[N+]([O-])c1ccc(/C=C/c2cc(-c3ccccc3)nc3ccc4ccccc4c23)cc1`, the TGI in the test on UACC-62 melanoma, in the test on SNB-75 CNS, with K-562 leukemia, with A549 NSCLC, with CAKI-1 renal and in the test with MDA-N was > 100 µM each time. In addition, the TGI in the test with NCI-H460 lung, with MOLT-4 leukemia, in the test on SK-MEL-28 melanoma and with EKVX NSCLC was > 100 µM in each case.
As to `CC(=O)c1cccn1/C=C(\OC(=O)OC(C)(C)C)c1ccc[nH]1`, the TGI in the test with UACC-62 melanoma is > 100 µM; in the test with SNB-75 CNS, 67.2 µM; in the test on K-562 leukemia, > 100 µM; with A549 NSCLC, > 100 µM; in the test on CAKI-1 renal, 91.2 µM; in the test with MDA-N, > 100 µM. For the same compound, the TGI in the test with NCI-H460 lung, in the test on MOLT-4 leukemia, in the test with SK-MEL-28 melanoma and in the test on EKVX NSCLC was > 100 µM throughout.
Take `Nc1ccc(-c2nc3ccccc3s2)cc1C(F)(F)F`: the TGI is 30.6 µM with UACC-62 melanoma; 27.9 µM in the test with SNB-75 CNS; 46.6 µM with K-562 leukemia; 37.4 µM with A549 NSCLC; 28.7 µM in the test on CAKI-1 renal; 26.4 µM in the test on MDA-N. Besides, the TGI in the test with NCI-H460 lung came to 28.5 µM; in the test with MOLT-4 leukemia it was 52.4 µM; with SK-MEL-28 melanoma, 33.9 µM; in the test with EKVX NSCLC, 23.9 µM. Further, the GI50 in the test on NCI-H460 lung was 14.6 µM.
For the compound `C(/C=C(\Nc1ccccc1)C12CC3CC(CC(C3)C1)C2)=Nc1ccccc1`, the TGI in the test on UACC-62 melanoma stood at 25.7 µM; in the test on SNB-75 CNS, 46.4 µM; with K-562 leukemia, 35.1 µM; in the test on A549 NSCLC, 73.3 µM; with CAKI-1 renal it was 29.5 µM; with MDA-N it was 30.9 µM. In addition, the TGI was 62.6 µM with NCI-H460 lung, 22.9 µM in the test on MOLT-4 leukemia, 47.1 µM with SK-MEL-28 melanoma and 39.4 µM with EKVX NSCLC.
As to `NC(CC1=CS(=O)(=O)c2ccc(Cl)cc21)C(=O)O` (stereo not drawn), the TGI in the test on UACC-62 melanoma, in the test on SNB-75 CNS, in the test with K-562 leukemia, in the test on A549 NSCLC, in the test with CAKI-1 renal and in the test on MDA-N was > 100 µM in each case. Further, the TGI in the test on NCI-H460 lung, with MOLT-4 leukemia, in the test with SK-MEL-28 melanoma and in the test on EKVX NSCLC was > 100 µM each time.
As to `O=C1NCC(NC(=O)C(F)(F)F)c2c(Br)sc(Br)c21` (stereo not drawn), the TGI in the test on UACC-62 melanoma, in the test on SNB-75 CNS, in the test on K-562 leukemia, in the test with A549 NSCLC, in the test with CAKI-1 renal and in the test on MDA-N was > 100 µM each time. Further, the TGI in the test with NCI-H460 lung, in the test with MOLT-4 leukemia, in the test on SK-MEL-28 melanoma and with EKVX NSCLC was > 100 µM throughout.
